Patent US8501911B2, “Methods of reducing inflammation and mucus hypersecretion” (Biomarck Pharmaceuticals, Ltd, priority 1999, dated 2013)

How the values were obtained:
Format in all cases: cell-based, human
PP1 = test: Protein phosphatase activity assay in NHBE cells, PP1; settings: after exposure to 8-Br-cGMP
Procedure: To confirm further activation of PP2A by PKG in NHBE cells, cytosolic PP1 and PP2A activities were determined after exposure of the cells to 8-Br-cGMP. […] Accordingly, this PP2A activity appeared critical for mucin secretion to occur; when PKG-induced MARCKS dephosphorylation was blocked by okadaic acid or fostriecin, the secretory response to PKC/PKG activation or UTP stimulation was ameliorated (see Results-I-6-1 and Results-I-6-2, above).
Protein Phosphatase Activity Assay—PP1 and PP2A activities were measured using a protein phosphatase assay system (Life Technologies, Inc.) as known in the art with slight modification. Huang et al., Adv. Exp. Med. Biol. 396, 209-215 (1996). Briefly, NHBE cells were treated with 8-Br-cGMP or medium alone for 5 min. Cells were then scraped into a lysis buffer (50 mM Tris-HCl (pH 7.4), 0.1% beta-mecaptoethanol, 0.1 mM EDTA, 1 mM benaamidine, 10 μg/ml pepstatin A, 10 μg/ml leupeptin) and disrupted by sonication for 20 s at 4° C. […] Released ^32Pi was counted by scintillation. The protein concentration of each sample was determined by the Bradford assay. PP2A activity was expressed as the sample total phosphatase activity minus the activity remaining in the presence of 1 nM okadaic acid. PP1 activity was expressed as the difference between the activities remaining in the presence of 1 nM and 1 μM okadaic acid, respectively. […]

MARCKS mRNA = MARCKS mRNA level in NHBE cells (Northern hybridization); settings: TNF-α 10 ng/ml 4 h, then PMA 100 nM+8-Br-cGMP 1 μM 15 min
Procedure: (§1) NHBE cells were treated with the antisense or the control oligonucleotide for 3 days and then stimulated with PMA (100 nM)+8-Br-cGMP (1 μM) for 15 min. Mucin secretion was analyzed by ELISA. Total RNA and protein were isolated from treated cells. MARCKS mRNA was assessed by Northern hybridization, and protein was assessed by Western blot. […] In this regard, MARCKS mRNA as a percent of control is shown in the following results which are designated as Results-I-3A-2:
(§2) Antisense Oligonucleotides—MARCKS antisense oligonucleotide and its corresponding control oligonucleotide were synthesized at Biognostik GmbH (Gottingen, Germany). […] Cells were then incubated with secretagogues, and mucin secretion was measured by ELISA. […] MARCKS mRNA was assessed by Northern hybridization according to conventional procedures using human MARCKS cDNA as a probe. MARCKS protein level was determined by Western blot using purified anti-MARCKS IgG1 (clone 2F12) as the primary detection antibody.
(§3) NHBE cells were incubated with 10 ng/ml human recombinant TNF-α or medium alone for 4 hrs, then stimulated with PMA (100 nM)+8-Br-cGMP (1 μM) for 15 min, or UTP (0.1 mM) for 2 hrs. Secreted mucin was collected and measured by ELISA. […] MARCKS mRNA was assessed by Northern hybridization, and protein by the Western Blot technique. […]

MARCKS protein = MARCKS protein level in NHBE cells (Western blot); settings: TNF-α 10 ng/ml 4 h
Procedure: as §1, §2, §3

Molecule	PP1 activity (PP1)	MARCKS mRNA level relative to control (MARCKS mRNA) [%]	Increase in MARCKS protein vs medium only (Western blot) (MARCKS protein)	MARCKS protein level relative to control (MARCKS protein; then PMA 100 nM+8-Br-cGMP 1 μM 15 min) [%]
Nc1nc2c(nc(Br)n2[C@@H]2O[C@@H]3COP(=O)(O)O[C@H]3[C@H]2O)c(=O)[nH]1 [8-Br-cGMP]	unchanged			
TNF-α		115	three- to four-fold increase	352
